From the NIST ThermoML archive (doi:10.1021/acs.jced.8b00153)
Where “and” joins values, the source holds several entries; their conditions need not be identical. Equal entries are not always repeated. Numbers after ± are expanded uncertainties.

Conditions: for surface tension liquid-gas: Drop volume; for viscosity / speed of sound / mass density / vapor or sublimation pressure: Liquid; for viscosity: Capillary tube (Ostwald / Ubbelohde) method; for speed of sound: Frequency=3 MHz, Single path-length method; for mass density: Vibrating tube method; for vapor or sublimation pressure: Ebulliometric method (Recirculating still)

CCc1ccco1 [2-ethylfuran]
Conditions	surface tension liquid-gas [mN/m]	vapor or sublimation pressure [kPa]
278.15 K	27.22 ± 0.25	–
280.65 K	26.91 ± 0.25	–
283.15 K	26.59 ± 0.25	–
285.65 K	26.31 ± 0.25	–
288.15 K	26.01 ± 0.25	–
289.96 K	–	4.96 ± 0.1
290.65 K	25.62 ± 0.25	–
292.18 K	–	5.57 ± 0.1
293.15 K	25.32 ± 0.25	–
293.77 K	–	6.05 ± 0.1
295.65 K	25.09 ± 0.25	–
295.94 K	–	6.77 ± 0.1
297.39 K	–	7.29 ± 0.1
298.15 K	24.78 ± 0.25	–
299.52 K	–	8.105 ± 0.1
300.65 K	24.43 ± 0.25	–
301.86 K	–	9.08 ± 0.1
303.15 K	24.12 ± 0.25	–
304.58 K	–	10.35 ± 0.1
305.65 K	23.81 ± 0.25	–
306.32 K	–	11.27 ± 0.1
308.15 K	23.51 ± 0.25	–
308.82 K	–	12.64 ± 0.1
310.65 K	23.22 ± 0.24	–
312.73 K	–	15.06 ± 0.1
313.15 K	22.91 ± 0.24	–

Conditions	mass density	speed of sound [m/s]	viscosity [mPa·s]
278.15 K, 100 kPa	920.97 ± 0.51 kg/m3	1281 ± 0.71	0.6327 ± 0.0065
280.65 K, 100 kPa	918.26 ± 0.51 kg/m3	1270.8 ± 0.71	0.6126 ± 0.0064
283.15 K, 100 kPa	915.55 ± 0.51 kg/m3 and 915.5 ± 0.22 kg/m3	1259.4 ± 0.71	0.5934 ± 0.0064
283.15 K, 2000 kPa	917.27 ± 0.23 kg/m3	–	–
283.15 K, 5000 kPa	919.69 ± 0.23 kg/m3	–	–
283.15 K, 7000 kPa	921.41 ± 0.23 kg/m3	–	–
283.15 K, 10000 kPa	923.87 ± 0.23 kg/m3	–	–
283.15 K, 15000 kPa	927.84 ± 0.24 kg/m3	–	–
283.15 K, 20000 kPa	931.59 ± 0.24 kg/m3	–	–
283.15 K, 25000 kPa	935.19 ± 0.25 kg/m3	–	–
283.15 K, 30000 kPa	938.66 ± 0.25 kg/m3	–	–
283.15 K, 35000 kPa	942.04 ± 0.26 kg/m3	–	–
283.15 K, 40000 kPa	945.33 ± 0.26 kg/m3	–	–
283.15 K, 45000 kPa	948.5 ± 0.26 kg/m3	–	–
283.15 K, 50000 kPa	951.53 ± 0.26 kg/m3	–	–
283.15 K, 55000 kPa	954.61 ± 0.27 kg/m3	–	–
283.15 K, 60000 kPa	957.6 ± 0.27 kg/m3	–	–
283.15 K, 65000 kPa	960.38 ± 0.27 kg/m3	–	–
285.65 K, 100 kPa	912.83 ± 0.51 kg/m3	1248.7 ± 0.71	0.5733 ± 0.0063
288.15 K, 100 kPa	910.1 ± 0.51 kg/m3 and 910.08 ± 0.22 kg/m3	1238.5 ± 0.71	0.556 ± 0.0062
288.15 K, 2000 kPa	911.89 ± 0.23 kg/m3	–	–
288.15 K, 5000 kPa	914.37 ± 0.23 kg/m3	–	–
288.15 K, 7000 kPa	916.19 ± 0.23 kg/m3	–	–
288.15 K, 10000 kPa	918.68 ± 0.24 kg/m3	–	–
288.15 K, 15000 kPa	922.7 ± 0.24 kg/m3	–	–
288.15 K, 20000 kPa	926.63 ± 0.25 kg/m3	–	–
288.15 K, 25000 kPa	930.32 ± 0.25 kg/m3	–	–
288.15 K, 30000 kPa	933.89 ± 0.26 kg/m3	–	–
288.15 K, 35000 kPa	937.37 ± 0.26 kg/m3	–	–
288.15 K, 40000 kPa	940.66 ± 0.27 kg/m3	–	–
288.15 K, 45000 kPa	943.92 ± 0.27 kg/m3	–	–
288.15 K, 50000 kPa	947.13 ± 0.27 kg/m3	–	–
288.15 K, 55000 kPa	950.18 ± 0.27 kg/m3	–	–
288.15 K, 60000 kPa	953.28 ± 0.27 kg/m3	–	–
288.15 K, 65000 kPa	956.1 ± 0.27 kg/m3	–	–
290.65 K, 100 kPa	907.37 ± 0.51 kg/m3	1227.6 ± 0.71	0.5394 ± 0.0062
293.15 K, 100 kPa	904.64 ± 0.51 kg/m3 and 904.65 ± 0.22 kg/m3	1216.7 ± 0.71	0.5214 ± 0.0061
293.15 K, 2000 kPa	906.44 ± 0.23 kg/m3	–	–
293.15 K, 5000 kPa	909.05 ± 0.23 kg/m3	–	–
293.15 K, 7000 kPa	910.93 ± 0.23 kg/m3	–	–
293.15 K, 10000 kPa	913.5 ± 0.24 kg/m3	–	–
293.15 K, 15000 kPa	917.66 ± 0.24 kg/m3	–	–
293.15 K, 20000 kPa	921.69 ± 0.25 kg/m3	–	–
293.15 K, 25000 kPa	925.54 ± 0.26 kg/m3	–	–
293.15 K, 30000 kPa	929.07 ± 0.26 kg/m3	–	–
293.15 K, 35000 kPa	932.7 ± 0.27 kg/m3	–	–
293.15 K, 40000 kPa	936.06 ± 0.27 kg/m3	–	–
293.15 K, 45000 kPa	939.48 ± 0.27 kg/m3	–	–
293.15 K, 50000 kPa	942.66 ± 0.28 kg/m3	–	–
293.15 K, 55000 kPa	945.78 ± 0.28 kg/m3	–	–
293.15 K, 60000 kPa	948.91 ± 0.28 kg/m3	–	–
293.15 K, 65000 kPa	951.86 ± 0.28 kg/m3	–	–
295.65 K, 100 kPa	901.9 ± 0.51 kg/m3	1205.2 ± 0.71	0.5061 ± 0.0061
298.15 K, 100 kPa	899.15 ± 0.51 kg/m3 and 899.11 ± 0.23 kg/m3	1194.9 ± 0.71	0.4917 ± 0.006
298.15 K, 2000 kPa	901.01 ± 0.23 kg/m3	–	–
298.15 K, 5000 kPa	903.73 ± 0.23 kg/m3	–	–
298.15 K, 7000 kPa	905.65 ± 0.24 kg/m3	–	–
298.15 K, 10000 kPa	908.34 ± 0.24 kg/m3	–	–
298.15 K, 15000 kPa	912.57 ± 0.25 kg/m3	–	–
298.15 K, 20000 kPa	916.67 ± 0.25 kg/m3	–	–
298.15 K, 25000 kPa	920.61 ± 0.26 kg/m3	–	–
298.15 K, 30000 kPa	924.3 ± 0.27 kg/m3	–	–
298.15 K, 35000 kPa	928.03 ± 0.27 kg/m3	–	–
298.15 K, 40000 kPa	931.52 ± 0.28 kg/m3	–	–
298.15 K, 45000 kPa	934.92 ± 0.28 kg/m3	–	–
298.15 K, 50000 kPa	938.29 ± 0.28 kg/m3	–	–
298.15 K, 55000 kPa	941.41 ± 0.29 kg/m3	–	–
298.15 K, 60000 kPa	944.69 ± 0.29 kg/m3	–	–
298.15 K, 65000 kPa	947.7 ± 0.29 kg/m3	–	–
300.65 K, 100 kPa	896.4 ± 0.51 kg/m3	1184.1 ± 0.71	0.4774 ± 0.006
303.15 K, 100 kPa	893.64 ± 0.51 kg/m3 and 893.58 ± 0.23 kg/m3	1172.5 ± 0.71	0.4637 ± 0.0059
303.15 K, 2000 kPa	895.61 ± 0.23 kg/m3	–	–
303.15 K, 5000 kPa	898.41 ± 0.23 kg/m3	–	–
303.15 K, 7000 kPa	900.35 ± 0.24 kg/m3	–	–
303.15 K, 10000 kPa	903.06 ± 0.24 kg/m3	–	–
303.15 K, 15000 kPa	907.56 ± 0.25 kg/m3	–	–
303.15 K, 20000 kPa	911.72 ± 0.26 kg/m3	–	–
303.15 K, 25000 kPa	915.8 ± 0.26 kg/m3	–	–
303.15 K, 30000 kPa	919.58 ± 0.27 kg/m3	–	–
303.15 K, 35000 kPa	923.37 ± 0.28 kg/m3	–	–
303.15 K, 40000 kPa	927 ± 0.28 kg/m3	–	–
303.15 K, 45000 kPa	930.47 ± 0.29 kg/m3	–	–
303.15 K, 50000 kPa	933.84 ± 0.29 kg/m3	–	–
303.15 K, 55000 kPa	937.1 ± 0.29 kg/m3	–	–
303.15 K, 60000 kPa	940.35 ± 0.29 kg/m3	–	–
303.15 K, 65000 kPa	943.48 ± 0.3 kg/m3	–	–
305.65 K, 100 kPa	890.87 ± 0.51 kg/m3	1161.8 ± 0.71	0.45 ± 0.0059
308.15 K, 100 kPa	888.1 ± 0.51 kg/m3 and 888.06 ± 0.23 kg/m3	1151.5 ± 0.71	0.4372 ± 0.0059
308.15 K, 2000 kPa	890.15 ± 0.23 kg/m3	–	–
308.15 K, 5000 kPa	893.04 ± 0.23 kg/m3	–	–
308.15 K, 7000 kPa	895.02 ± 0.24 kg/m3	–	–
308.15 K, 10000 kPa	897.93 ± 0.24 kg/m3	–	–
308.15 K, 15000 kPa	902.45 ± 0.25 kg/m3	–	–
308.15 K, 20000 kPa	906.8 ± 0.26 kg/m3	–	–
308.15 K, 25000 kPa	910.98 ± 0.27 kg/m3	–	–
308.15 K, 30000 kPa	914.84 ± 0.27 kg/m3	–	–
308.15 K, 35000 kPa	918.68 ± 0.28 kg/m3	–	–
308.15 K, 40000 kPa	922.47 ± 0.29 kg/m3	–	–
308.15 K, 45000 kPa	925.95 ± 0.29 kg/m3	–	–
308.15 K, 50000 kPa	929.45 ± 0.3 kg/m3	–	–
308.15 K, 55000 kPa	932.76 ± 0.3 kg/m3	–	–
308.15 K, 60000 kPa	936.18 ± 0.3 kg/m3	–	–
308.15 K, 65000 kPa	939.24 ± 0.3 kg/m3	–	–
310.65 K, 100 kPa	885.31 ± 0.51 kg/m3	1140.6 ± 0.71	0.4258 ± 0.0058
313.15 K, 100 kPa	–	–	0.4149 ± 0.0058
